Test results: patent publication US12599592B2, “Therapeutic small molecules for treatment of pulmonary hypertension” (UNIVERSITY OF PITTSBURGH—OF THE COMMONWEALTH SYSTEM OF …, priority 2020, dated 2026)

How the values were obtained:
Format in all cases: cell-based, human
mitochondrial Complex I = assay: Mitochondrial Complex I activity in PAECs
ISCU [1] = assay: Immunoblot of ISCU and GSTP1 in PASMCs; settings: BRD2889 1 uM
Method: (§1) In IL-6/sIL-6R+hypoxia experiments, a human recombinant IL-6/IL-6R alpha protein chimera (25 ng/ml, Millipore) was administered at 70-80% confluency for 48 h in complete media along with vehicle control (DMSO, Sigma-41639). BRD2889 (1 uM) vs. vehicle control were added, as indicated, and placed into a hypoxia chamber for 24 h. The hypoxia chamber (modular incubator chamber) was obtained from Billups-Rothenberg Inc. (Del Mar, Calif) and placed in regulated CO2 incubator at 37° C.
Immunoblot and densitometry: Cells were lysed in RIPA buffer (Sigma) along with 1× protease inhibitor cocktail (Sigma). Protein lysate was resolved by gradient 4%-15% SDS-PAGE gels and transferred onto a 0.2 μm PVDF membrane (Bio-Rad). Membranes were blocked in 5% non-fat milk in 1×PBST buffer for one hour at room temperature. Later, they were incubated in the presence of the primary antibody overnight at 4° C. and then appropriate HRP-conjugated secondary antibodies (Life Technologies). The following antibodies were used: human LGALS8 (AF1305, RnD Systems), mouse/rat Lgals8 (ab69631, Abcam), pSTAT1 (ab29045, Abcam) and STAT1 (ab47425, Abcam), GSTP1 (ab153949, Abcam), ISCU (14812-1-AP, Prointech), Glutathione (ab19534, Abcam), HIF2A (NB100-122, Novous), α-Tubulin (CP06, Millipore sigma), and ACTB (sc-47778, Santa Cruz). […] The images were later quantified using AlphaEaseFC software (Alpha Innotech).

ISCU [2] = assay: Immunoblot of ISCU and GSTP1 in PAECs
Method: For hypoxia exposure, cells were plated in 6-well cell culture plates at 1×10^5 cells/well, grown for 24 hr and placed into a normobaric hypoxia chamber (1% O2) for 24 h under specific treatment conditions. Namely, for I-BET and siLGALS8 exposures, cells were either pre-treated with I-BET/vehicle control (VC) or transfected with siLgals8/Scr for 24 h. Then, they were cultured in basal media at 1% 02. After 24 h, caspase activity and mitochondrial superoxide levels were quantified. To detect activation status of pSTAT1/STAT1 by immunoblot, cells were exposed to 8 h of hypoxia.
as §1
Protein stability assay: The proteasome inhibitor MG132 (M7449, Sigma) was stored at −20° C. at a concentration of 10 mM diluted in dimethyl sulfoxide (DMSO). PAECs were exposed to MG132 ([…]) vs. DMSO vehicle control for 2 hr under hypoxia, prior to harvesting of cellular lysate for immunoblotting.
Immunoblot and densitometry: Cells were lysed in RIPA buffer (Sigma) along with 1× protease inhibitor cocktail (Sigma). Protein lysate was resolved by gradient 4%-15% SDS-PAGE gels and transferred onto a 0.2 μm PVDF membrane (Bio-Rad). Membranes were blocked in 5% non-fat milk in 1×PBST buffer for one hour at room temperature. Later, they were incubated in the presence of the primary antibody overnight at 4° C. and then appropriate HRP-conjugated secondary antibodies (Life Technologies). The following antibodies were used: human LGALS8 (AF1305, RnD Systems), mouse/rat Lgals8 (ab69631, Abcam), pSTAT1 (ab29045, Abcam) and STAT1 (ab47425, Abcam), GSTP1 (ab153949, Abcam), ISCU (14812-1-AP, Prointech), Glutathione (ab19534, Abcam), HIF2A (NB100-122, Novous), α-Tubulin (CP06, Millipore sigma), and ACTB (sc-47778, Santa Cruz). The immunoreactive bands were visualized with the Chemidoc XRS+system (Bio-Rad) using SuperSignal West Femto chemiluminescent substrates (Thermo Fisher Scientific). The images were later quantified using AlphaEaseFC software (Alpha Innotech).

[3] = system: C43 genes (ISCU, mTOR); EDN1, VCAM1, ICAM1; assay: RT-qPCR of Cluster 43 and proinflammatory genes in PAECs
Method: as §1, with “BRD2889 (1 uM) vs. vehicle control were added, as indicated, and placed into a hypoxia chamber for 24 h.” left out
RT-qPCR analysis: Cells were lysis in 1 ml of QiaZol reagent (Qiagen). Total RNA content was extracted using the RNeasy kit (Qiagen), according to the manufacturer's instructions. Total RNA concentration was determined using a BioTek Synergy multimode plate reader. Messenger RNAs were reverse transcribed to generate cDNA using the Multiscript RT kit (Thermo Fisher Scientific). cDNA for specific gene targets was amplified and quantified via fluorescently-labeled Taqman primer sets and Taqman fast advanced master mix (Thermo Fisher Scientific) using an Applied Biosystems QuantStudio 6 Flex Real-Time PCR System.

SMILES: COc1ccc(C#CC2CCCN(C(=O)/C=C/c3cc(OC)c(OC)c(OC)c3)C2=O)cc1 (stereo not shown) [BRD2889]
- mitochondrial Complex I activity (mitochondrial Complex I; PAECs, IL-6/sIL-6R + hypoxia): partially rescued
- iron-sulfur-dependent mitochondrial Complex I activity (mitochondrial Complex I; hypoxic PAECs): reversed the decrease
- hypoxia-induced decrease in mitochondrial Complex I activity (mitochondrial Complex I; hypoxic PAECs with siRNA knockdown of ISCU): did not reverse
- GSTP1 protein expression (ISCU [1]; IL-6/R + hypoxia): did not affect
- ISCU protein (ISCU [1]; IL-6/sIL-6R + hypoxia): failed to rescue
- GSTP1 expression (ISCU [2]; PAECs, IL-6/R + hypoxia): without altering
- ISCU expression (immunoblot) (ISCU [2]; PAECs, IL-6/sIL-6R + hypoxia, BRD2889 1 uM): reversed the decrease
- GSTP1 expression (ISCU [2]; hypoxic PAECs): did not affect
- ISCU protein levels (ISCU [2]; hypoxic PAECs): reversed hypoxia-dependent reduction
- inflammatory gene transcripts (EDN1, VCAM1, ICAM1) ([3]; IL-6/sIL-6R + hypoxia): normalized this upregulation
- C43 genes MID2, BANP, AGTRAP transcripts ([3]; hypoxia 48 hrs, BRD2889 5 uM): unaffected in hypoxia
- ISCU transcript (RT-qPCR) ([3]; hypoxia 48 hrs, BRD2889 5 uM): fully reversing the hypoxic decrease
- mTOR transcript (RT-qPCR) ([3]; hypoxia 48 hrs, BRD2889 5 uM): partially reversing the decrease
